Results taken from patent US20220354949A1, “NOVEL COMPOUNDS” (XENIOPRO GmbH, priority 2018, published 2022).

Assays:
Type in all cases: cell-based
[1] = test system: HL-60 cells (human acute myeloid leukemia cells); assay: Proliferation assay (alamarBlue) with HL-60 cells; conditions: 20 μM
Description: (§1) The antiproliferative activities of compounds falling under formula (Ia), (Ib) and (Ic), respectively, were investigated on cells or cell lines originating from a disorder of the haematopoietic system, including the myeloid cell compartment and the lymphoid cell compartment (T-cells and B-cells), the neuroendocrine system, the cervix, the breast, the ovaries, the lung, the gastrointestinal tract, and the mucosal epithelium, as well as from the skin epithelium and from the muscle. To this end, HL-60 cells, NB-4 cells, HH cells, RPMI-8402 cells, TANOUE cells, TT cells, HeLa cells, MDA-MB-231 cells, FU-OV-1 cells, LOU-NH91 cells, 23132/87 cells, CAL-27 cells, BHY cells, SCC-25 cells, A-431 cells, human primary epidermal keratinocytes (HPEK), and C2C12 cells were seeded into 96-well plates suitable for fluorescence assays (CORNING #3598) at following initial cell numbers: 1000 cells per well for HL-60; 1000 cells per well for NB-4; 5000 cells per well for HH; 5000 cells per well for RPMI-8402; 1500 cells per well for TANOUE; 9000 cells per well for TT; 2000 cells per well for HeLa; 3000 cells per well for MDA-MB-231; 3000 cells per well for FU-OV-1; 4000 cells per well for LOU-NH91; 2000 cells per well for 23132/87; 2000 cells per well for CAL-27; 1500 cells per well for BHY; 1500 cells per well for SCC-25; 700 cells per well for A-431; 1000 cells per well for HPEK; 500 cells per well for C2C12. The cells were treated with compounds at indicated final concentrations (diluted from the 1000× stock-solutions in DMSO to a final DMSO concentration of 0.1% v/v in H2O (Water For Injection, WFI, Fisherscientific #10378939)) or with the empty carrier DMSO at 0.1% v/v as control for 5 days. At day 5 after starting the treatments the cells were subjected to the alamarBlue® Proliferation Assay (Bio-Rad Serotec GmbH, BUF012B) according to the protocol of the manufacturer. The readout was taken with a multi-well plate-reader in the fluorescence mode with applying a filter for excitation at 560 nm (band width 10 nm) and for emission at 590 nm (band width 10 nm). Control treatments for growth inhibition with commercial compounds such as Methotrexate (MTREX) and Resveratrol (RES) were included on every plate. Some of the test compounds of the present invention were obtained and applied as their salts. According cases are indicated in the column “Specification” in Table 55 to Table 92 and by their sum formula in Table 93.
(§2) The assays were performed in duplicate or more replicates of independent single experiments each containing a six-fold replicate for every condition. For every individual plate, the measured fluorescence intensity values of the conditions with compound treatment were normalized against the corresponding equally weighted arithmetic mean of the fluorescence intensity values of the six DMSO treated control wells in order to obtain the relative values to a baseline level of 1.0.
(§3) Two independent outlier analyses were performed according to the methods by Peirce and Chauvenet (Ross, Journal of Engineering Technology 2003, 1-12). Outliers confirmed by at least one of the methods were excluded from the calculations but not more than one value out of six per compound within a single experiment. The weighted arithmetic mean (here abbreviated as AVEw) for each compound was calculated from the normalized values over all independent replicates of the single experiments comprising the six replicates each. The corresponding standard deviation for the weighted arithmetic mean was calculated according to the method described by Bronstein et al. (Bronstein, Semendjajew, Musiol, Müihlig, Taschenbuch der Mathematik, 5th edition 2001 (German), publisher: Verlag Harri Deutsch, Frankfurt am Main and Thun) and was combined with the Gauß' error propagation associated with the performed calculation for the normalization. The resulting standard deviation is herein referred to as “combined standard deviation”. […]

[2] = test system: HH cells (human cutaneous T-cell lymphoma cells); assay: Proliferation assay (alamarBlue) with HH cells; conditions: 20 μM
Description: as §1, §2, §3

[3] = test system: RPMI-8402 cells (human T cell acute lymphoblastic leukemia cells); assay: Proliferation assay (alamarBlue) with RPMI-8402 cells; conditions: 20 μM
Description: as §1, §2, §3

[4] = test system: TANOUE cells (human B cell leukemia cells); assay: Proliferation assay (alamarBlue) with TANOUE cells; conditions: compound at 20 μM
Description: as §1, §2, §3

[5] = test system: HeLa cells (human cervical adenocarcinoma cells); assay: Proliferation assay (alamarBlue) with HeLa cells; conditions: compound at 20 μM
Description: as §1, §2, §3

[6] = test system: MDA-MB-231 cells (human breast carcinoma cells); assay: Proliferation assay (alamarBlue) with MDA-MB-231 cells; conditions: compound at 20 μM
Description: as §1, §2, §3

[7] = test system: FU-OV-1 cells (human ovarian carcinoma cells); assay: Proliferation assay (alamarBlue) with FU-OV-1 cells; conditions: compound at 20 μM
Description: as §1, §2, §3

[8] = test system: LOU-NH91 cells (human lung squamous cell carcinoma cells); assay: Proliferation assay (alamarBlue) with LOU-NH91 cells; conditions: 20 μM
Description: as §1, §2, §3

[9] = test system: CAL-27 cells (human tongue squamous cell carcinoma cells); assay: Proliferation assay (alamarBlue) with CAL-27 cells; conditions: 20 μM
Description: as §1, §2, §3

[10] = test system: BHY cells (human oral squamous cell carcinoma cells); assay: Proliferation assay (alamarBlue) with BHY cells; parameters: key: fluorescence relative to mean of DMSO control wells = 1.0; conditions: 20 μM
Description: as §1, §2, §3

[11] = test system: SCC-25 cells (human tongue squamous cell carcinoma cells); assay: Proliferation assay (alamarBlue) with SCC-25 cells; conditions: 20 μM
Description: as §1, §2, §3

CN(Cc1cnc2nc(N)nc(N)c2n1)c1ccc(C(=O)N[C@@H](CCC(=O)O)C(=O)O)cc1 [MTREX, Methotrexate]
Activity Range: weighted arithmetic mean (AVEw) of normalized fluorescence intensity, proliferation assay with HL-60 cells ([1]; relative to DMSO basis level 1.0, Table 55 (novel compounds)): 0.1 ± 0.1 | Activity Range: weighted arithmetic mean (AVEw) of normalized fluorescence intensity, proliferation assay with HL-60 cells ([1]; relative to DMSO basis level 1.0, Table 56 (compounds disclosed in PCT/EP2018/054686)): 0.1 ± 0.1 | Activity Range: weighted arithmetic mean (AVEw) of normalized fluorescence intensity, proliferation assay with HH cells ([2]; relative to DMSO basis level 1.0, Table 59 (novel compounds)): 0.4 ± 0.1 | Activity Range: weighted arithmetic mean (AVEw) of normalized fluorescence intensity, proliferation assay with HH cells ([2]; relative to DMSO basis level 1.0, Table 60 (compounds disclosed in PCT/EP2018/054686)): 0.4 ± 0.1 | Activity Range: weighted arithmetic mean (AVEw) of normalized fluorescence intensity, proliferation assay with RPMI-8402 cells ([3]; relative to DMSO basis level 1.0, Table 61 (novel compounds)): 0.1 ± 0.0 | Activity Range: weighted arithmetic mean (AVEw) of normalized fluorescence intensity, proliferation assay with RPMI-8402 cells ([3]; relative to DMSO basis level 1.0, Table 62 (compounds disclosed in PCT/EP2018/054686)): 0.1 ± 0.0 | activity at 20 µM ([4]; Homo sapiens, B-cell, Table 63 (novel compounds), read-out: Activity Range: weighted arithmetic mean (AVEw) of normalized fluorescence intensity relative to DMSO basis level 1.0): 10% | Activity Range: weighted arithmetic mean (AVEw) of normalized fluorescence intensity relative to DMSO basis level 1.0 ([4]; Table 64 (compounds of PCT/EP2018/054686)): 0.1 ± 0.0 | Activity Range: weighted arithmetic mean (AVEw) of normalized fluorescence intensity relative to DMSO basis level 1.0 ([5]; Table 67 (novel compounds)): 0.4 ± 0.0 | Activity Range: weighted arithmetic mean (AVEw) of normalized fluorescence intensity relative to DMSO basis level 1.0 ([5]; Table 68 (compounds of PCT/EP2018/054686)): 0.4 ± 0.0 | activity at 20 µM ([6]; Homo sapiens, Table 69 (novel compounds), read-out: Activity Range: weighted arithmetic mean (AVEw) of normalized fluorescence intensity relative to DMSO basis level 1.0): 60% | Activity Range: weighted arithmetic mean (AVEw) of normalized fluorescence intensity relative to DMSO basis level 1.0 ([6]; Table 70 (compounds of PCT/EP2018/054686)): 0.6 ± 0.0 | Activity Range: weighted arithmetic mean (AVEw) of normalized fluorescence intensity relative to DMSO basis level 1.0 ([7]; Table 71 (novel compounds)): 1.0 ± 0.0 | Activity Range: weighted arithmetic mean (AVEw) of normalized fluorescence intensity relative to DMSO basis level 1.0 ([7]; Table 72 (compounds of PCT/EP2018/054686)): 1.0 ± 0.0 | Activity Range (weighted arithmetic mean AVEw of normalized fluorescence intensity, relative to DMSO basis level 1.0) ([8]; Table 73 (novel compounds)): 0.5 ± 0.1 | Activity Range (weighted arithmetic mean AVEw of normalized fluorescence intensity, relative to DMSO basis level 1.0) ([8]; Table 74 (compounds disclosed in PCT/EP2018/054686)): 0.5 ± 0.1 | Activity Range (weighted arithmetic mean AVEw of normalized fluorescence intensity, relative to DMSO basis level 1.0) ([9]; Table 77 (novel compounds)): 0.1 ± 0.0 | Activity Range (weighted arithmetic mean AVEw of normalized fluorescence intensity, relative to DMSO basis level 1.0) ([9]; Table 78 (compounds disclosed in PCT/EP2018/054686)): 0.1 ± 0.0 | Activity Range (weighted arithmetic mean AVEw of normalized fluorescence intensity, relative to DMSO basis level 1.0) ([10]; Table 79 (novel compounds)): 0.3 ± 0.0 | Activity Range (weighted arithmetic mean AVEw of normalized fluorescence intensity, relative to DMSO basis level 1.0) ([10]; Table 80 (compounds disclosed in PCT/EP2018/054686)): 0.3 ± 0.0 | Activity Range (weighted arithmetic mean AVEw of normalized fluorescence intensity, relative to DMSO basis level 1.0) ([10]; Table 81 (compounds disclosed in PCT/EP2018/054686)): 0.3 ± 0.0 | Activity Range (weighted arithmetic mean AVEw of normalized fluorescence intensity, relative to DMSO basis level 1.0) ([11]; Table 82 (novel compounds)): 0.5 ± 0.1 | Activity Range (weighted arithmetic mean AVEw of normalized fluorescence intensity, relative to DMSO basis level 1.0) ([11]; Table 83 (compounds disclosed in PCT/EP2018/054686)): 0.5 ± 0.1
